Source: article PMC6779870, “Structural analysis of fungal pathogenicity-related casein kinase α subunit, Cka1, in the human fungal pathogen Cryptococcus neoformans” (Scientific Reports, 2019)

Biological target: T1, cnCka1 (Cryptococcus neoformans CK2α orthologue, Cka1) (Cryptococcus neoformans, UniProt J9VNH4)
T1 construct: gene CNAG_05694; full-length, Met1–Pro338 (His6-TRX fusion in SPR; tag removed for crystal)
Assay: SPR (Biacore […]) and crystal structure at […] Å; also ADP-Glo kinase assay
Type: binding

T1 sequence (J9VNH4 entry or part of it): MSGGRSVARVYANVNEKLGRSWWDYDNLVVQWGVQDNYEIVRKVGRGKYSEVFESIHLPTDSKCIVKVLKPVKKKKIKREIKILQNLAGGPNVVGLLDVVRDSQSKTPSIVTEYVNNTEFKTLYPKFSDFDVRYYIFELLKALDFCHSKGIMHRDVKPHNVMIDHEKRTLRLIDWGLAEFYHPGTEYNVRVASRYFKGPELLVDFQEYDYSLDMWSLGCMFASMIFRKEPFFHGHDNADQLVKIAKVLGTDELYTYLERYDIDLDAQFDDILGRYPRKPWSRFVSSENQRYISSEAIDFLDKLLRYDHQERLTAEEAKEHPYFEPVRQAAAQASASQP

In the case of `O=C(O)c1ccc2c(c1)nc(Nc1cccc(Cl)c1)c1ccncc12` [CX-4945, 5-(3-chlorophenylamino)benzo[c][2,6]naphthyridine-8-carboxylic acid], the Kd is reported as 60.1 nM.
